Results on 4 molecules are retold here after patent US9708306B2, “Benzimidazole derivatives and preparation process and pharmaceutical uses thereof” (WUHAN LL SCIENCE AND TECHNOLOGY DEVELOPMENT CO., LTD, priority 2015, dated 2017).

Assay [1] deals with renovascular hypertensive rats. Kind of assay: Effect on reducing blood pressure of renovascular hypertensive rats by single oral administration. Conditions: for change in vivo at 0.5 mg/kg / inhibition in vivo at 0.5 mg/kg / change in vivo at 1 mg/kg / inhibition in vivo at 1 mg/kg / change in vivo at 2 mg/kg / inhibition in vivo at 2 mg/kg: Rattus norvegicus, single oral administration; for change in vivo at 0.5 mg/kg / change in vivo at 1 mg/kg / change in vivo at 2 mg/kg: RHR, read-out: Variations on heart rate; for inhibition in vivo at 0.5 mg/kg / inhibition in vivo at 1 mg/kg / inhibition in vivo at 2 mg/kg: two-kidney one-clip RHR, measured 1-10 h, read-out: Maximum blood pressure reduction. The format is in vivo, Wistar rats.

Assay [2] deals with spontaneously hypertensive rats (SHR). The assay can be described thus: Effect on reducing blood pressure of spontaneously hypertensive rats (SHR) by multiple oral administrations. The format is in vivo.
Assay [3] relates to normal rats. Kind of assay: Effect on blood pressure of normal rats by single oral administration. The settings on record: for inhibition in vivo at 0.5 mg/kg / inhibition in vivo at 1 mg/kg / inhibition in vivo at 2 mg/kg / change in vivo at 0.5 mg/kg / change in vivo at 1 mg/kg / change in vivo at 2 mg/kg: Rattus norvegicus, po, single, normal rats; for inhibition in vivo at 0.5 mg/kg / inhibition in vivo at 1 mg/kg / inhibition in vivo at 2 mg/kg: 8 h, read-out: blood pressure reduction at 8 h after the administration; for inhibition in vivo at 0.5 mg/kg / change in vivo at 0.5 mg/kg: 0.5 mg/kg p.o.; for inhibition in vivo at 1 mg/kg / change in vivo at 1 mg/kg: 1.0 mg/kg p.o.; for inhibition in vivo at 2 mg/kg / change in vivo at 2 mg/kg: 2.0 mg/kg p.o.; for change in vivo at 0.5 mg/kg / change in vivo at 1 mg/kg / change in vivo at 2 mg/kg: read-out: variations on heart rate. The class given is in vivo, Wistar rats.

Where [4] appears, read: renal artery-ligated rat, 24 hours after the administration, dose not stated.
The mark [5] stands for this setting: renal artery-ligated rat, result in words.
[6] abbreviates: Rattus norvegicus, 0.5 mg/kg oral once per day, SHR, 1 hour after the administration, read-out: Maximum blood pressure reduction, 1st-day administration.
Where [7] appears, read: Rattus norvegicus, 0.5 mg/kg oral once per day, SHR, 1 hour after the administration, read-out: Maximum blood pressure reduction, 7th-day administration.
Setting [8] is: Rattus norvegicus, 0.5 mg/kg oral once per day, SHR, 1 hour after the administration, read-out: Maximum blood pressure reduction, 14th-day administration.
The mark [9] stands for this setting: Rattus norvegicus, 1.0 mg/kg oral once per day, SHR, 1 hour after the administration, read-out: Maximum blood pressure reduction, 1st-day administration.
Where [10] appears, read: Rattus norvegicus, 1.0 mg/kg oral once per day, SHR, 1 hour after the administration, read-out: Maximum blood pressure reduction, 7th-day administration.
[11] abbreviates: Rattus norvegicus, 1.0 mg/kg oral once per day, SHR, 1 hour after the administration, read-out: Maximum blood pressure reduction, 14th-day administration.
[12] abbreviates: Rattus norvegicus, 1.0 mg/kg oral, SHR, read-out: Heart Rate (effect on reducing heart rate).
[13] abbreviates: Rattus norvegicus, 2.0 mg/kg oral once per day, SHR, 1 hour after the administration, read-out: Maximum blood pressure reduction, 1st-day administration.
The mark [14] stands for this setting: Rattus norvegicus, 2.0 mg/kg oral once per day, SHR, 1 hour after the administration, read-out: Maximum blood pressure reduction, 7th-day administration.
Where [15] appears, read: Rattus norvegicus, 2.0 mg/kg oral once per day, SHR, 1 hour after the administration, read-out: Maximum blood pressure reduction, 14th-day administration.
Setting [16] is: Rattus norvegicus, 2.0 mg/kg oral, SHR, read-out: Heart Rate (effect on reducing heart rate).
The mark [17] stands for this setting: during the whole administration, result in words.

Values joined by “and” are separate entries in the source; they are usually repeats but may differ in a detail not shown here. Identical values can stand only once. Like-named read-outs stand apart in the source and are kept apart here.

As to `CCOc1nc2cccc(C(=O)OCOC(=O)C(C)(C)C)c2n1Cc1ccc(-c2ccccc2-c2noc(=O)[nH]2)cc1` [QR01005], the change in vivo at 0.5 mg/kg in assay [1] was -10 ± 3%; in assay [3], -3 ± 1%. Further, the inhibition in vivo at 0.5 mg/kg came out at 16 ± 3.2% in assay [1]; 16 ± 4.8% in assay [2] (setting [6]); 18 ± 5.2% in assay [2] (setting [7]); 21 ± 3.9% in assay [2] (setting [8]); 6.3 ± 1.3% in assay [3]. The change in vivo at 1 mg/kg in assay [1] is -21 ± 6%; in assay [3], -6 ± 6%. Also, the inhibition in vivo at 1 mg/kg stood at 36 ± 3.1% in assay [1]; 38 ± 3.7% in assay [2] (setting [9]); 40 ± 6.2% in assay [2] (setting [10]); 42 ± 6.1% in assay [2] (setting [11]); 23 ± 6% in assay [2] (setting [12]); 3.6 ± 2.1% in assay [3]. The results for the change in vivo at 2 mg/kg in assay [1] and in assay [3] were -25 ± 6% and 8%, respectively. For the same molecule, the inhibition in vivo at 2 mg/kg in assay [1] turned out to be 43 ± 3.5%; in assay [2] (setting [13]) it was 45 ± 4.8%; in assay [2] (setting [14]), 41 ± 6.2%; in assay [2] (setting [15]), 45 ± 7.2%; in assay [2] (setting [16]), 21 ± 4%; in assay [3], 4.8 ± 2.3%. For the same molecule, the “blood pressure reduction at 24 hours after the administration” value (“blood pressure reduction at 24 hours” for short) in assay [1] (setting [4]) is recorded as 21%. Further, the “blood pressure reduction effect compared with Azilsartan medoxomil” value in assay [1] (setting [5]) is “obviously superior to that of the Azilsartan medoxomil positive drug”; in assay [2] (SHR, result in words), “obviously superior to that of the Azilsartan medoxomil positive drug”. In assay [1] (setting [5]), the “lasting time of the blood pressure reduction effect compared with Azilsartan medoxomil” value was “close to that of Azilsartan medoxomil”. The inhibition in vivo at 5 mg/kg in assay [2] (Rattus norvegicus, 5 mg/kg oral, SHR, read-out: Heart Rate (effect on reducing heart rate)) came to 18 ± 5%. For the same molecule, the “reduction effects on the heart rate of SHR rats” value (shortened to “reduction effects”) in assay [2] (setting [17]) is on record as “significant reduction effects on the heart rate”.
With `CCOc1nc2cccc(C(=O)OCc3c(-c4ccccc4)no[n+]3[O-])c2n1Cc1ccc(-c2ccccc2-c2noc(=O)[nH]2)cc1` [QR01009], the change in vivo at 0.5 mg/kg in assay [1] is -12 ± 4%; in assay [3], -5 ± 2%. In addition, the inhibition in vivo at 0.5 mg/kg in assay [1] was found to be 22 ± 2.8%; in assay [2] (setting [6]), 24 ± 6.8%; in assay [2] (setting [7]) it was 28 ± 5.3%; in assay [2] (setting [8]) it was 25 ± 4.9%; in assay [2] (Rattus norvegicus, 0.5 mg/kg oral, SHR, read-out: Heart Rate (effect on reducing heart rate)) it was 23 ± 3%; in assay [3] it was 3.1 ± 2.4%. In addition, the figures for the change in vivo at 1 mg/kg in assay [1] and in assay [3] were -25 ± 5% and 4%, respectively. In addition, the inhibition in vivo at 1 mg/kg in assay [1] amounted to 36 ± 3.2%; in assay [2] (setting [9]), 42 ± 6.3%; in assay [2] (setting [10]) it was 41 ± 5.9%; in assay [2] (setting [11]) it was 45 ± 6.7%; in assay [2] (setting [12]), 24 ± 2%; in assay [3], 5.6 ± 1.9%. Besides, the change in vivo at 2 mg/kg in assay [1] was -28 ± 8%; in assay [3] it was -8 ± 5%. The inhibition in vivo at 2 mg/kg in assay [1] was found to be 43 ± 6.7%; in assay [2] (setting [13]) it was 45 ± 5.6%; in assay [2] (setting [14]) it was 48 ± 4.6%; in assay [2] (setting [15]), 43 ± 7.2%; in assay [2] (setting [16]) it was 27 ± 5%; in assay [3], 4.8 ± 5.8%. Besides, the “blood pressure reduction at 24 hours” value in assay [1] (setting [4]) is on record as 25%. The “blood pressure reduction effect compared with Azilsartan medoxomil” value in assay [1] (setting [5]) was “obviously superior to that of the Azilsartan medoxomil positive drug”; in assay [2] (SHR, result in words) it was “obviously superior to that of the Azilsartan medoxomil positive drug”. The “lasting time of the blood pressure reduction effect compared with Azilsartan medoxomil” value in assay [1] (setting [5]) is listed as “close to that of Azilsartan medoxomil”. In addition, in assay [2] (setting [17]), the “reduction effects” value was “significant reduction effects on the heart rate”.
Consider `CCOc1nc2cccc(C(=O)OCc3oc(=S)oc3C)c2n1Cc1ccc(-c2ccccc2-c2noc(=O)[nH]2)cc1` [QR01013], for which the change in vivo at 0.5 mg/kg is -6 ± 4% in assay [1] and -3 ± 4% in assay [3]. Moreover, the inhibition in vivo at 0.5 mg/kg in assay [1] turned out to be 16 ± 3%; in assay [2] (setting [6]), 14 ± 5.9%; in assay [2] (setting [7]) it was 15 ± 7.1%; in assay [2] (setting [8]) it was 17 ± 5.8%; in assay [3], 4.2 ± 2.7%. The change in vivo at 1 mg/kg in assay [1] was -8 ± 3%; in assay [3], 5%. Besides, the inhibition in vivo at 1 mg/kg in assay [1] came out at 25 ± 4.5%; in assay [2] (setting [9]) it was 24 ± 5.8%; in assay [2] (setting [10]), 28 ± 6%; in assay [2] (setting [11]) it was 27 ± 6.4%; in assay [3], 6.2 ± 2.3%. In addition, the change in vivo at 2 mg/kg in assay [1] is -10 ± 5%; in assay [3], -5 ± 4%. The inhibition in vivo at 2 mg/kg in assay [1] was found to be 34 ± 7.1%; in assay [2] (setting [13]) it was 34 ± 5.9%; in assay [2] (setting [14]), 38 ± 5.7%; in assay [2] (setting [15]), 39 ± 7.1%; in assay [3], 3.4 ± 4.2%.
Regarding `CCOc1nc2cccc(C(=O)OCOC(=O)OCc3nc(C)c(C)nc3C)c2n1Cc1ccc(-c2ccccc2-c2noc(=O)[nH]2)cc1` [QR01017], in assay [1] (rat, in vivo), the “Maximum blood pressure reduction” value was 25 ± 6.2% and 38 ± 3.5% and 46 ± 2.6%; the “blood pressure reduction at 24 hours” value was 20%; the “blood pressure reduction effect compared with Azilsartan medoxomil” value is listed as “obviously superior to that of the Azilsartan medoxomil positive drug”; the “lasting time of the blood pressure reduction effect compared with Azilsartan medoxomil” value is listed as “close to that of Azilsartan medoxomil”. Moreover, in assay [2] (rat, in vivo), the “Heart Rate (effect on reducing heart rate)” value was 18 ± 5% and 24 ± 4% and 29 ± 6%; the “Maximum blood pressure reduction, 1st-day administration” value was 22 ± 5.0% and 34 ± 4.4% and 36 ± 4.5%; the “Maximum blood pressure reduction, 7th-day administration” value was 22 ± 3.3% and 35 ± 3.9% and 38 ± 2.1%; the “Maximum blood pressure reduction, 14th-day administration” value is 23 ± 3.9% and 36 ± 3.2% and 38 ± 3.6%. In addition, the “reduction effects” value in assay [2] (rat, in vivo) is “significant reduction effects on the heart rate”. Besides, in assay [3] (rat, in vivo), the “Variations on heart rate” value was −5 ± 2% and −2 ± 4% and −4 ± 3%; the “blood pressure reduction at 8 h after the administration” value is 2.9 ± 4.5% and 3.3 ± 4.1% and 5.1 ± 3.2%.
